Measured values published in ChEMBL document CHEMBL1201862, “PubChem BioAssay data set” (2004).
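Method: 48-hour compound exposure of cells in 96-well plates, five concentrations, linear interpolation of endpoints. Here, GI50 denotes the concentration required for 50% inhibition of growth.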 Activity calls are given as the source filed them. Cut-off read from the data, not from the text of the source: active = GI50 up to about 1.1 µM and inactive = higher.

Tests used:
Experiment in all cases: DTP human tumour cell line panel, 48 h
[1] = test system: UO-31
[2] = test system: EKVX
[3] = test system: A549
[4] = test system: OVCAR-8
[5] = test system: SK-OV-3
[6] = test system: HCC 2998
[7] = test system: M14
[8] = test system: A498
[9] = test system: IGROV-1
[10] = test system: MDA-MB-231
[11] = test system: KM12
[12] = test system: COLO 205
[13] = test system: SK-MEL-5
[14] = test system: UACC-62
[15] = test system: HT-29
[16] = test system: SK-MEL-28
[17] = test system: DMS-273
[18] = test system: T47D
[19] = test system: K562
[20] = test system: HOP-92

Measured: GI50

N=C(N)NS(=O)(=O)c1ccc(NC(=O)c2cccc3c(O)c4ccccc4nc23)cc1
inactive: [1] > 100 µM | [2] > 100 µM | [3] > 100 µM | [4] 71.1 µM | [5] 58.2 µM | [6] > 71.8 µM | [7] > 100 µM | [8] > 76.4 µM | [9] 81.5 µM | [10] > 100 µM | [11] > 100 µM | [12] > 100 µM | [13] > 100 µM | [14] > 100 µM | [15] > 100 µM | [16] > 100 µM | [17] > 100 µM | [18] > 100 µM | [19] 44 µM | [20] 56.2 µM

Clc1cc(Cl)c2c(Cl)cc(Cl)c3c2c1N=S=N3
inactive: [1] > 100 µM | [2] > 100 µM | [3] > 100 µM | [4] > 100 µM | [5] > 100 µM | [6] > 100 µM | [7] > 100 µM | [8] 6.68 µM | [9] > 100 µM | [11] > 100 µM | [12] > 100 µM | [13] > 100 µM | [14] 62.5 µM | [15] > 100 µM | [16] > 100 µM | [17] > 100 µM | [19] > 100 µM | [20] > 100 µM

Cc1cc(C)c2c(c1)N[S@@](=O)S2
inactive: [1] 23 µM | [2] 51.5 µM | [3] 27.9 µM | [4] 17.7 µM | [5] 31.4 µM | [6] 39.6 µM | [7] 17 µM | [8] > 100 µM | [9] 19.4 µM | [11] 24 µM | [12] 18.2 µM | [13] 29.9 µM | [14] 18.6 µM | [15] 20.2 µM | [16] 28 µM | [17] 17.2 µM | [19] 26.4 µM | [20] 45.8 µM

CC1=C(C)CC2(CCCCC2=O)[S+]([O-])C1 (stereo not given)
inactive: [1] > 100 µM | [2] > 100 µM | [3] > 100 µM | [4] > 100 µM | [5] > 100 µM | [6] > 100 µM | [7] > 100 µM | [8] > 100 µM | [9] > 100 µM | [11] > 100 µM | [12] > 100 µM | [13] > 100 µM | [14] > 100 µM | [15] > 100 µM | [16] > 100 µM | [17] > 100 µM | [19] > 100 µM | [20] > 100 µM

COC(=O)Cc1nc2ccccc2o1
inactive: [1] > 100 µM | [2] > 100 µM | [3] 74.6 µM | [4] 55.5 µM | [5] > 100 µM | [6] 88.5 µM | [7] 51.6 µM | [8] > 100 µM | [9] > 100 µM | [11] 66.5 µM | [12] 95.1 µM | [13] 50.8 µM | [14] 20.2 µM | [15] 90.8 µM | [16] > 100 µM | [17] 36.4 µM | [19] 32.4 µM | [20] > 100 µM

O=S1OC(c2ccccc2)(c2ccccc2)C(c2ccccc2)(c2ccccc2)O1
inactive: [1] > 29.7 µM | [2] 48.3 µM | [3] 40 µM | [4] > 100 µM | [5] > 100 µM | [6] > 100 µM | [7] > 100 µM | [8] > 100 µM | [9] > 100 µM | [11] 5.43 µM | [12] > 100 µM | [13] 15.4 µM | [14] > 100 µM | [15] 7.36 µM | [16] > 100 µM | [17] > 100 µM | [19] 25.1 µM | [20] 7.74 µM
